Organism: Rattus norvegicus
Experiment: DrugMatrix - Regimen: Daily Repeat
Type: toxicity, organism-based, Sprague-Dawley
Set-up: regimen Daily Repeat, gender Male, age 6-8 weeks
Conditions: in vivo, po, 1200 mg/kg, route oral GAVAGE, dose level High, vehicle 100 % WATER; for ABSOLUTE BASOPHIL / ABSOLUTE EOSINOPHIL / ABSOLUTE LYMPHOCYTE / ABSOLUTE MONOCYTE / ABSOLUTE SEGMENTED NEUTROPHIL / BASOPHIL / EOSINOPHIL / ERYTHROCYTE COUNT / HEMATOCRIT / HEMOGLOBIN / LEUKOCYTE COUNT / LYMPHOCYTE / MEAN CORPUSCULAR HEMOGLOBIN / MEAN CORPUSCULAR HEMOGLOBIN CONCENTRATION / MEAN CORPUSCULAR VOLUME / MONOCYTE / NEUTROPHIL / NUCLEATED RED BLOOD CELLS / PLATELET COUNT: tissue Blood; for ALANINE AMINOTRANSFERASE / ALBUMIN / ALKALINE PHOSPHATASE / ASPARTATE AMINOTRANSFERASE / BLOOD UREA NITROGEN / CARBON DIOXIDE / CHLORIDE / CHOLESTEROL / CREATINE PHOSPHOKINASE / CREATININE / GLUCOSE / LACTATE DEHYDROGENASE / LIPASE / PHOSPHORUS / POTASSIUM / SODIUM / TOTAL BILIRUBIN / TOTAL PROTEIN / URIC ACID: tissue Plasma

Q: For `CCC1(C)CC(=O)NC1=O` (stereo unspecified) [ETHOSUXIMIDE], which “ABSOLUTE BASOPHIL” value (72 h, time 3 day) is on record?
A: 0 CELLS/uL

Q: What about the “ABSOLUTE EOSINOPHIL” value (72 h, time 3 day) of the same compound?
A: 0 CELLS/uL

Q: And the “ABSOLUTE LYMPHOCYTE” value (72 h, time 3 day)?
A: 11632.67 CELLS/uL

Q: And the “ABSOLUTE MONOCYTE” value (72 h, time 3 day)?
A: 44.67 CELLS/uL

Q: What about the “ABSOLUTE SEGMENTED NEUTROPHIL” value (72 h, time 3 day) of the same compound?
A: 722.67 CELLS/uL

Q: What about the BASOPHIL (72 h, time 3 day) of the same compound?
A: 0%

Q: And the EOSINOPHIL (72 h, time 3 day)?
A: 0%

Q: And the “ERYTHROCYTE COUNT” value (72 h, time 3 day)?
A: 5.96 x10E6/uL

Q: What about the HEMATOCRIT (72 h, time 3 day) of the same compound?
A: 38.63%

Q: What about the HEMOGLOBIN (72 h, time 3 day) of the same compound?
A: 15.43 G/DL

Q: And the “LEUKOCYTE COUNT” value (72 h, time 3 day)?
A: 12.4 x10E3/uL

Q: And the LYMPHOCYTE (72 h, time 3 day)?
A: 94%

Q: And the “MEAN CORPUSCULAR HEMOGLOBIN” value (72 h, time 3 day)?
A: 26 pg

Q: What about the “MEAN CORPUSCULAR HEMOGLOBIN CONCENTRATION” value (72 h, time 3 day) of the same compound?
A: 40 G/DL

Q: And the “MEAN CORPUSCULAR VOLUME” value (72 h, time 3 day)?
A: 65 fL

Q: And the MONOCYTE (72 h, time 3 day)?
A: 0.33%

Q: And the NEUTROPHIL (72 h, time 3 day)?
A: 5.67%

Q: What about the “NUCLEATED RED BLOOD CELLS” value (72 h, time 3 day) of the same compound?
A: 0 /100WBC

Q: And the “PLATELET COUNT” value (72 h, time 3 day)?
A: 1151 x10E3/uL

Q: And the “ALANINE AMINOTRANSFERASE” value (72 h, time 3 day)?
A: 70.67 u/L

Q: What about the ALBUMIN (72 h, time 3 day) of the same compound?
A: 4.4 G/DL

Q: And the “ALKALINE PHOSPHATASE” value (72 h, time 3 day)?
A: 269.67 u/L

Q: What about the “ASPARTATE AMINOTRANSFERASE” value (72 h, time 3 day) of the same compound?
A: 95 u/L

Q: What about the “BLOOD UREA NITROGEN” value (72 h, time 3 day) of the same compound?
A: 16.33 mg/dL

Q: And the “CARBON DIOXIDE” value (72 h, time 3 day)?
A: 28.67 mmol/L

Q: And the CHLORIDE (72 h, time 3 day)?
A: 97 MEQ/L

Q: And the CHOLESTEROL (72 h, time 3 day)?
A: 100.67 mg/dL

Q: And the “CREATINE PHOSPHOKINASE” value (72 h, time 3 day)?
A: 183.67 u/L

Q: And the CREATININE (72 h, time 3 day)?
A: 0.14 mg/dL

Q: And the GLUCOSE (72 h, time 3 day)?
A: 133 mg/dL

Q: And the “LACTATE DEHYDROGENASE” value (72 h, time 3 day)?
A: 123 u/L

Q: And the LIPASE (72 h, time 3 day)?
A: 10.67 u/L

Q: What about the PHOSPHORUS (72 h, time 3 day) of the same compound?
A: 12.53 mg/dL

Q: And the POTASSIUM (72 h, time 3 day)?
A: 7.49 MEQ/L

Q: What about the SODIUM (72 h, time 3 day) of the same compound?
A: 140.33 MEQ/L

Q: What about the “TOTAL BILIRUBIN” value (72 h, time 3 day) of the same compound?
A: 0.2 mg/dL

Q: What about the “TOTAL PROTEIN” value (72 h, time 3 day) of the same compound?
A: 5.97 G/DL

Q: What about the “URIC ACID” value (72 h, time 3 day) of the same compound?
A: 1.9 mg/dL

Q: What about the “ABSOLUTE BASOPHIL” value (120 h, time 5 day) of the same compound?
A: 0 CELLS/uL

Q: And the “ABSOLUTE EOSINOPHIL” value (120 h, time 5 day)?
A: 57.67 CELLS/uL

Q: What about the “ABSOLUTE LYMPHOCYTE” value (120 h, time 5 day) of the same compound?
A: 11720.67 CELLS/uL

Q: What about the “ABSOLUTE MONOCYTE” value (120 h, time 5 day) of the same compound?
A: 238.33 CELLS/uL

Q: What about the “ABSOLUTE SEGMENTED NEUTROPHIL” value (120 h, time 5 day) of the same compound?
A: 2116.67 CELLS/uL

Q: What about the BASOPHIL (120 h, time 5 day) of the same compound?
A: 0%

Q: What about the EOSINOPHIL (120 h, time 5 day) of the same compound?
A: 0.33%

Q: What about the “ERYTHROCYTE COUNT” value (120 h, time 5 day) of the same compound?
A: 6.03 x10E6/uL

Q: What about the HEMATOCRIT (120 h, time 5 day) of the same compound?
A: 37.47%

Q: And the HEMOGLOBIN (120 h, time 5 day)?
A: 14.97 G/DL

Q: What about the “LEUKOCYTE COUNT” value (120 h, time 5 day) of the same compound?
A: 14.13 x10E3/uL

Q: And the LYMPHOCYTE (120 h, time 5 day)?
A: 83%

Q: What about the “MEAN CORPUSCULAR HEMOGLOBIN” value (120 h, time 5 day) of the same compound?
A: 24.8 pg

Q: What about the “MEAN CORPUSCULAR HEMOGLOBIN CONCENTRATION” value (120 h, time 5 day) of the same compound?
A: 39.97 G/DL

Q: And the “MEAN CORPUSCULAR VOLUME” value (120 h, time 5 day)?
A: 62.07 fL

Q: And the MONOCYTE (120 h, time 5 day)?
A: 1.67%

Q: What about the NEUTROPHIL (120 h, time 5 day) of the same compound?
A: 15%

Q: What about the “NUCLEATED RED BLOOD CELLS” value (120 h, time 5 day) of the same compound?
A: 0 /100WBC

Q: And the “PLATELET COUNT” value (120 h, time 5 day)?
A: 1343 x10E3/uL

Q: What about the “ALANINE AMINOTRANSFERASE” value (120 h, time 5 day) of the same compound?
A: 98.67 u/L

Q: And the ALBUMIN (120 h, time 5 day)?
A: 4.7 G/DL

Q: And the “ALKALINE PHOSPHATASE” value (120 h, time 5 day)?
A: 209.33 u/L

Q: What about the “ASPARTATE AMINOTRANSFERASE” value (120 h, time 5 day) of the same compound?
A: 133.67 u/L

Q: And the “BLOOD UREA NITROGEN” value (120 h, time 5 day)?
A: 15 mg/dL

Q: And the “CARBON DIOXIDE” value (120 h, time 5 day)?
A: 25.67 mmol/L

Q: What about the CHLORIDE (120 h, time 5 day) of the same compound?
A: 96.67 MEQ/L

Q: And the CHOLESTEROL (120 h, time 5 day)?
A: 108 mg/dL

Q: What about the “CREATINE PHOSPHOKINASE” value (120 h, time 5 day) of the same compound?
A: 425.33 u/L

Q: What about the CREATININE (120 h, time 5 day) of the same compound?
A: 0.16 mg/dL

Q: What about the GLUCOSE (120 h, time 5 day) of the same compound?
A: 121 mg/dL

Q: What about the “LACTATE DEHYDROGENASE” value (120 h, time 5 day) of the same compound?
A: 480.67 u/L

Q: What about the LIPASE (120 h, time 5 day) of the same compound?
A: 10.67 u/L

Q: And the PHOSPHORUS (120 h, time 5 day)?
A: 11.4 mg/dL

Q: What about the POTASSIUM (120 h, time 5 day) of the same compound?
A: 6.59 MEQ/L

Q: What about the SODIUM (120 h, time 5 day) of the same compound?
A: 141.93 MEQ/L

Q: What about the “TOTAL BILIRUBIN” value (120 h, time 5 day) of the same compound?
A: 0.13 mg/dL

Q: What about the “TOTAL PROTEIN” value (120 h, time 5 day) of the same compound?
A: 6.37 G/DL

Q: And the “URIC ACID” value (120 h, time 5 day)?
A: 1.63 mg/dL

Reference: ChEMBL document CHEMBL3885881, “DrugMatrix”
